Reference: US10538498B2, “1,3,4-oxadiazole sulfonamide derivative compounds as histone deacetylase 6 inhibitor, and the pharmaceutical composition comprising the same” (Chong Kun Dang Pharmaceutical Corp., priority 2015, dated 2020)

How the values were obtained:
[1] = molecular target: T1, human recombinant HDAC1 (Homo sapiens, UniProt Q13547); assay: HDAC1 enzyme activity inhibition assay (HDAC Fluorimetric Drug Discovery Kit); type: biochemical; conditions: 0.3 μg enzyme, 10 μM substrate, 30° C., 60 minutes
T1 construct: purchased Enzo Life Science BML-SE456
T1 sequence (Q13547 whole entry): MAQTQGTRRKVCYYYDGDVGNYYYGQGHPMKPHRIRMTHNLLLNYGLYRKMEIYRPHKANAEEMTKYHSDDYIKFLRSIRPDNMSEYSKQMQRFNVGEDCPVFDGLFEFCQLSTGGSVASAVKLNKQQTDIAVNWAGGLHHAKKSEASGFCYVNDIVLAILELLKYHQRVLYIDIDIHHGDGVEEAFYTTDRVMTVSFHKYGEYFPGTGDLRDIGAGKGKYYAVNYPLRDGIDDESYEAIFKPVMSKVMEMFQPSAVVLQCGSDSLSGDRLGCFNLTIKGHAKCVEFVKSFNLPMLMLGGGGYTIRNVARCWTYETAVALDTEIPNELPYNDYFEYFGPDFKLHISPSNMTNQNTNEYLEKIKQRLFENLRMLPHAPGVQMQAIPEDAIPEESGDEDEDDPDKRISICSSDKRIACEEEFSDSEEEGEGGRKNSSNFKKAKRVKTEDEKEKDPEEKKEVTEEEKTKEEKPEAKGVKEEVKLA
Outline: (§1)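 Human recombinant enzyme, 0.3 μg, incubated with 10 μM Fluor de Lys-SIRT1 substrate and 5-fold compound dilutions at 30° C for 60 min. Developer II added for 30 min, then fluorescence read (Ex 360/Em 460). IC50 values derived from the fluorescence data.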

[2] = molecular target: T2, human recombinant HDAC6 (Homo sapiens, UniProt Q9UBN7); assay: HDAC6 enzyme activity inhibition assay (HDAC Fluorimetric Drug Discovery Kit); type: biochemical; conditions: for HDAC6 selectivity (fold): HDAC1 vs HDAC6; for IC50: same protocol as the HDAC1 enzyme activity test
T2 construct: purchased Calbiochem 382180
T2 sequence (Q9UBN7 1-1215): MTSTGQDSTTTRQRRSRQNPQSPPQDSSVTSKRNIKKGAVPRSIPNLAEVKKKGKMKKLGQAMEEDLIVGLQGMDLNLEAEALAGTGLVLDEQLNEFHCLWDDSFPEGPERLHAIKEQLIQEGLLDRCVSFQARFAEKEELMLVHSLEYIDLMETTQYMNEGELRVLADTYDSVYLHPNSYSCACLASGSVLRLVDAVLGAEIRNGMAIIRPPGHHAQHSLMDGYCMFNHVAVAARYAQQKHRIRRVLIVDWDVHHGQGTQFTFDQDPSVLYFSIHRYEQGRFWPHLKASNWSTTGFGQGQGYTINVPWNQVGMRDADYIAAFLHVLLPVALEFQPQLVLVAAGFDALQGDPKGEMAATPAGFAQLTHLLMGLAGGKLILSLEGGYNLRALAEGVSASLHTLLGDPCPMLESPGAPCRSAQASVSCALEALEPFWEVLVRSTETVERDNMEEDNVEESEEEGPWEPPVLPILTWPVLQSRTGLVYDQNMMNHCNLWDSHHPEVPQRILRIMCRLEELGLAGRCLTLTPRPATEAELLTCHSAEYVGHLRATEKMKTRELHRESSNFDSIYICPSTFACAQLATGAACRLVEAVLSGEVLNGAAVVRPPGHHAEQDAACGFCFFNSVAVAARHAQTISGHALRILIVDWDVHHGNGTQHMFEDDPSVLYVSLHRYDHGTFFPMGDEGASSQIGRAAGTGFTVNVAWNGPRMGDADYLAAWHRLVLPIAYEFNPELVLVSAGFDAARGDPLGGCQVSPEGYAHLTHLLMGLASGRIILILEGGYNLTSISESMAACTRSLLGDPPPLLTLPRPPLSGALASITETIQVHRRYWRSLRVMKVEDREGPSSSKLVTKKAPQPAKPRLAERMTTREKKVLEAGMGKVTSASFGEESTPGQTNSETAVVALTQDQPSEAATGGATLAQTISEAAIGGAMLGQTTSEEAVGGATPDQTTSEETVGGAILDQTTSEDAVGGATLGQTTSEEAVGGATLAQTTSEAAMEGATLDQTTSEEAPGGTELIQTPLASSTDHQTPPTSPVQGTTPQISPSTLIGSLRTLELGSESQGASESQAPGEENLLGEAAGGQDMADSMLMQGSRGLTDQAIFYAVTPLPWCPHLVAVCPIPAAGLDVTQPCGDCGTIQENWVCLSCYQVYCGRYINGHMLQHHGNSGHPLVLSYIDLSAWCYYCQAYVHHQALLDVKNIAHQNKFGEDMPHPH
Outline: as §1

Compound | IC50 [1] | HDAC6 selectivity (fold) [2] | IC50 [2]
Cc1cccc(N(Cc2ccc(-c3nnc(C(F)F)o3)cn2)S(=O)(=O)C2CCN([C@H]3CC[C@H](C(F)(F)F)CC3)CC2)c1 [Compound 11690, N-((5-(5-(difluoromethyl)-1,3,4-oxadiazol-2-yl)pyridin-2-yl)methyl)-N-(m-tolyl)-1-((1r,4r)-4-(trifluoromethyl)cyclohexyl)piperidine-4-sulfonamide] | 54.8 µM | 244 fold | 224 nM
Cc1cccc(N(Cc2ccc(-c3nnc(C(F)F)o3)cn2)S(=O)(=O)C2CCN([C@H]3CC[C@@H](C(F)(F)F)CC3)CC2)c1 [Compound 11691, N-((5-(5-(difluoromethyl)-1,3,4-oxadiazol-2-yl)pyridin-2-yl)methyl)-N-(m-tolyl)-1-((1s,4s)-4-(trifluoromethyl)cyclohexyl)piperidine-4-sulfonamide] | 34.2 µM | 425 fold | 80.5 nM
Cc1cccc(N(Cc2ccc(-c3nnc(C(F)F)o3)cn2)S(=O)(=O)C2CCN(C3CCOCC3)CC2)c1 [Compound 11692, N-((5-(5-(difluoromethyl)-1,3,4-oxadiazol-2-yl)pyridin-2-yl)methyl)-1-(tetrahydro-2H-pyran-4-yl)-N-(m-tolyl)piperidine-4-sulfonamide] | 71.7 µM | 1309 fold | 54.7 nM
Cc1cccc(N(Cc2ccc(-c3nnc(C(F)F)o3)cc2)S(=O)(=O)C2CCN([C@H]3CC[C@H](F)CC3)CC2)c1 [Compound 11695, N-(4-(5-(difluoromethyl)-1,3,4-oxadiazol-2-yl)benzyl)-1-((1r,4r)-4-fluorocyclohexyl)-N-(m-tolyl)piperidine-4-sulfonamide] | 61.4 µM | 306 fold | 200 nM
Cc1cccc(N(Cc2ccc(-c3nnc(C(F)F)o3)cc2)S(=O)(=O)C2CCN([C@H]3CC[C@@H](F)CC3)CC2)c1 [Compound 11696, N-(4-(5-(difluoromethyl)-1,3,4-oxadiazol-2-yl)benzyl)-1-((1s,4s)-4-fluorocyclohexyl)-N-(m-tolyl)piperidine-4-sulfonamide] | 51.4 µM | 289 fold | 178 nM
C[C@H]1CCCN1CCCS(=O)(=O)N(Cc1ccc(-c2nnc(C(F)F)o2)cc1)c1ccccc1 [Compound 11707, (S)—N-(4-(5-(difluoromethyl)-1,3,4-oxadiazol-2-yl)benzyl)-3-(2-methylpyrrolidin-1-yl)-N-phenylpropane-1-sulfonamide] | 42.5 µM | 597 fold | 71.1 nM
O=S(=O)(CCCO)N(Cc1ccc(-c2nnc(C(F)F)o2)cc1)c1ccccc1 [Compound 11708, N-(4-(5-(difluoromethyl)-1,3,4-oxadiazol-2-yl)benzyl)-3-hydroxy-N-phenylpropane-1-sulfonamide] | 65.1 µM | 837 fold | 77.8 nM
O=C(OCCCS(=O)(=O)N(Cc1ccc(-c2nnc(C(F)F)o2)cc1)c1ccccc1)C(F)F [Compound 11709, 3-(N-(4-(5-(difluoromethyl)-1,3,4-oxadiazol-2-yl)benzyl)-N-phenylsulfamoyl)propyl 2,2-difluoroacetate] | 80.4 µM | 1065 fold | 75.5 nM
O=S(=O)(CCCN1CCCC1)N(Cc1ccc(-c2nnc(C(F)F)o2)cn1)c1ccccc1 [Compound 11710, N-((5-(5-(difluoromethyl)-1,3,4-oxadiazol-2-yl)pyridin-2-yl)methyl)-N-phenyl-3-(pyrrolidin-1-yl)propane-1-sulfonamide] | 29.4 µM | 578 fold | 50.9 nM
O=S(=O)(CCCN1CCOCC1)N(Cc1ccc(-c2nnc(C(F)F)o2)cn1)c1ccc(F)c(Cl)c1 [Compound 11711, N-(3-chloro-4-fluorophenyl)-N-((5-(5-(difluoromethyl)-1,3,4-oxadiazol-2-yl)pyridin-2-yl)methyl)-3-morpholinopropane-1-sulfonamide] | 61.3 µM | 874 fold | 70.1 nM
O=S(=O)(CCCN1CCCC1)N(Cc1ccc(-c2nnc(C(F)F)o2)cc1)c1ccc(F)c(Cl)c1 [Compound 11722, N-(3-chloro-4-fluorophenyl)-N-(4-(5-(difluoromethyl)-1,3,4-oxadiazol-2-yl)benzyl)-3-(pyrrolidin-1-yl)propane-1-sulfonamide] | 41 µM | 1266 fold | 32.4 nM
O=S(=O)(C1CCN([C@H]2CC[C@H](F)CC2)CC1)N(Cc1ccc(-c2nnc(C(F)F)o2)cn1)c1cccc(Cl)c1 [Compound 11727, N-(3-chlorophenyl)-N-((5-(5-(difluoromethyl)-1,3,4-oxadiazol-2-yl)pyridin-2-yl)methyl)-1-((1r,4r)-4-fluorocyclohexyl)piperidine-4-sulfonamide] | 33.5 µM | 594 fold | 56.3 nM
O=S(=O)(C1CCN([C@H]2CC[C@@H](F)CC2)CC1)N(Cc1ccc(-c2nnc(C(F)F)o2)cn1)c1cccc(Cl)c1 [Compound 11728, N-(3-chlorophenyl)-N-((5-(5-(difluoromethyl)-1,3,4-oxadiazol-2-yl)pyridin-2-yl)methyl)-1-((1s,4s)-4-fluorocyclohexyl)piperidine-4-sulfonamide] | 21.6 µM | 453 fold | 47.6 nM
NC(=O)[C@@H]1CCCN1CCS(=O)(=O)N(Cc1ccc(-c2nnc(C(F)F)o2)cn1)c1ccccc1 [Compound 11847, (S)-1-(2-(N-((5-(5-(difluoromethyl)-1,3,4-oxadiazol-2-yl)pyridin-2-yl)methyl)-N-phenylsulfamoyl)ethyl)pyrrolidine-2-carboxamide] | 24.5 µM | 445 fold | 55.1 nM
NC(=O)[C@H]1CCCN1CCS(=O)(=O)N(Cc1ccc(-c2nnc(C(F)F)o2)cn1)c1ccccc1 [Compound 11848, (R)-1-(2-(N-((5-(5-(difluoromethyl)-1,3,4-oxadiazol-2-yl)pyridin-2-yl)methyl)-N-phenylsulfamoyl)ethyl)pyrrolidine-2-carboxamide] | 38.9 µM | 661 fold | 58.9 nM
